Values quoted from earlier work in US20230303474A1, “TOTAL SYNTHESES OF SPECIALIZED PRO-RESOLVING MEDIATORS (SPMS), STRUCTURAL ISOMERS AND STRUCTURAL ANALOGS” (UNIVERSITÉ LAVAL, priority 2020, published 2023).

Tested on: skeletal muscle cells
Settings: background statement citing ref. 19

SMILES	release of the prototypic myokine interleukin-6 (IL-6)
CC/C=C\C[C@H](O)\C=C/C=C/C=C/[C@H](O)C/C=C\C/C=C\CCC(=O)O [PD1, (4Z,7Z,10R,11E,13E,15Z,17S,19Z)-10,17-dihydroxydocosa-4,7,11,13,15,19-hexaenoic acid]	ineffective
CC/C=C\C[C@H](O)/C=C/C=C\C=C\[C@@H](O)C/C=C\C/C=C\CCC(=O)O [PDX, (4Z,7Z,10S,11E,13Z,15E,17S,19Z)-10,17-dihydroxydocosa-4,7,11,13,15,19-hexaenoic acid]	induce the release
